Tests used:
[1] = tested on: vertebral fractures in osteoporotic post-menopausal women
Description: VERTEBRAL FRACTURES—Calculations of prevalent and incident categorical vertebral fractures were performed by comparing each patient's baseline vertebral heights with a reference population (prevalent fracture) and with their follow-up heigiits (incident fractures). Only data from the true baselines were used to determine prevalent fractures. Any vertebral height ratio more than three standard deviations below its corresponding population reference value was defined as a prevalent vertebral fracture. An incident fracture was defined as greater than or equal to a 20% reduction from baseline vertebral height, with an absolute decrease of at least 4 mm in any vertebral height between baseline and follow-up.
(§1) Postmenopausal women having a “low” lumbar spinal bone mineral density, defined as either a bone mineral density (BMD) of less than or equal to 0.92 g/cm^2 (+ or −0.02 g/cm^2) as measured by Lunar DPX method, or less than or equal to 0.80 g/cm^2 (+ or −0.02 g/cm^2) as measured by the Hologic QDR method are considered to have osteoporosis. This definition corresponds to a BMD of approximately two and one-half standard deviations below the mean BMD of mature pre-menopausal Caucasian women in the United States. Patients are otherwise in good health based on medical history, a physical examination and a laboratory screening evaluation.
(§2) Data was collected on a total of 881 patients from two study groups (cohorts), following virtually identical protocol design and procedures, except that one study was conducted in the United States, and the other was conducted in Canada, Mexico, Europe, Israel, South America, Australia and New Zealand. Data from the two groups was then pooled. […] Additionally, all patients received dietary evaluation and instruction on calcium intake.
(§3) Assessment of vertebral fracture and vertebral deformity (SDI) was based on measurements from lateral spine x-rays, blinded to sequence. Lateral spine x-rays were taken at baseline, one, two and three years. The process of reading the x-rays involved a computerized entry of measurements taken at each of the vertebrae noted on the x-rays, a process known as digitization. […] A computer mouse with cross-hairs is used to enter the data as X,Y coordinates into a commercially available digitization board and computer software program, which computes the distance between landmarks (vertebral heights) in millimeters.

[2] = tested on: vertebral deformity in osteoporotic post-menopausal women; conditions: after three years
From the text: as §1, §2, §3

[3] = tested on: decrease in stature in osteoporotic post-menopausal women; conditions: over three years
From the text: as §1, §2

With `NCCCC(O)(P(=O)(O)O)P(=O)(O)O` [alendronate, 4-amino-1-hydroxy-butylidene-1,1-bisphosphonate] the “number of vertebral fractures per 100 patients” value ([1]; three years) was 4.2, the “women with a new vertebral fracture” value ([1]; three years of study, 17 of 526 women, oral 5, 10 or 20/5 mg daily pooled, p=0.034 vs placebo) was 3.23% and the “proportion of patients experiencing two or more fractures among patients with at least one incident vertebral fracture” value ([1]; three years, 3/17) was 18%. For the same compound, the “mild fractures (end-plate deformity fractures) among women who sustained an incident fracture” value ([1]; three years, 6/17) was 6/17 (35.3%), the “severe fractures (crush or wedge fractures) among women who sustained an incident fracture” value ([1]; three years, 11/17) was 11/17 (64.7%) and the “reduction in vertebral fracture rate per 100 patients compared to placebo” value ([1]; total number of vertebral fractures) was “at least 63%”. For the same compound, the “SDI mean change from baseline, women with increased deformity” value [2] was 0.143, the “SDI mean change from baseline, overall” value ([2]; all women) was 0.041 and the “patients with progression (increase) in vertebral deformity by SDI” value ([2]; p=0.028 by Chi-square test) was 33%. For the same compound, the “mean stature lost in patients who sustained at least one vertebral fracture” value [3] was 5.9 mm.
